US7715901B2, “Sensitized online BOLD-MRI imaging method” (Yeda Research and Development Co. Ltd., priority 2002, dated 2010)

Legend:
M2R melanoma xenografts = assay: Follow up of tumor response after Pd-Bpheid PDT; assay type: in vivo, mouse
Protocol: (i) Animals, tumor model and PDT Male CD1 nude mice (30 g±2 g) were implanted s.c. with M2R melanoma xenografts. PDT of anesthetized mice was performed on tumors (7-9 mm in diameter), as previously described (Zilberstein et al., 2001), with slight changes to allow for manipulation inside the magnet during MRI recording, or to perform PDT on the anesthetized mouse placed on the microscope stage during IVM. Intravenous (i.v.) Pd-Bpheid administration (5 mg/kg in vehicle, provided by Negma-Lerads Laboratoires, Toussus Le-Noble, France) was immediately followed by fiber optic guided tumor illumination (light spot Ø=1 cm^2, 763 nm, 102 J/cm^2) for 10 minutes, using a 1 W diode laser (CeramOptec GmbH, Bonn, Germany). The experiments were performed inside the magnet during the MRI recording (see details below). Room temperature was kept constant (28° C.) throughout the experiments.
PDT was performed in three modes: (i) for tumor therapy, i.v. Pd-Bpheid administration was immediately followed by transcutaneous illumination; (ii) for MR imaging, Pd-Bpheid administration (by remotely activated i.v. catheterization) and transcutaneous illumination were performed inside the magnet (FIG. 5A); and (iii) for IVM, Pd-Bpheid administration and illumination of the semi-transparent mouse ear were conducted on top of the microscope stage.
Controls: Light control: illumination of tumors in mice administered with vehicle alone (without photosensitizer). Dark control, Pd-Bpheid administered to tumor-bearing mice without illumination. Mice were euthanized (CO2) to avoid tumor burden when tumors reached ≧10% of body weight. All experiments were conducted according to institutional animal welfare regulations.
Male CD1 nude mice, s.c. implanted with M2R melanoma xenografts were i.v.-injected with Pd-Bpheid (5 mg/kg) and instantly illuminated for 10 minutes (102 J/cm^2). Hemorrhagic tumor necrosis (10/11 mice within 24-48 h) was accompanied by a strong inflammatory response. Tumors in untreated (4/4) light (4/4 mice) or dark (4/4 mice) controls continued to grow reaching […] of body […] by 9±3 days. […]

[1] = test system: M2R melanoma tumor blood vessels; assay: Immunohistochemistry of HNE-protein adducts (lipid peroxidation) in tumors after PDT; assay type: in vivo, mouse; conditions: tumors dissected 1 hour after PDT
Source text: (iii) Immunohistochemistry (IHC): Histological and immunohistological examinations were used for validation of the results obtained during the PDT experiments conducted by MRI and IVM. Dissected tumors were fixed in paraformaldehyde, and embedded in paraffin. IHC of PDT-induced LPO was based on immunodetection of HNE (4-hydroxynonenal), an aldehydic peroxidation product of polyunsaturated fatty acids that forms covalent adducts with proteins by reductive amination and/or Michael type addition (Uchida et al., 1995). PDT-damaged areas were visualized by IHC with anti-HNE. Thus, tumor sections were re-hydrated, blocked with bovine serum albumin for 4 h at 37° C., and treated with rabbit anti-HNE antiserum specifically recognizing HNE adducts (Calbiochem, La Jolla, Calif., USA, 1:400). HRP-conjugated goat anti-rabbit antibody served as 2nd antibody (Jackson, West Grove, Pa., USA) using 3-amino-9-ethylcarbazole as a chromogenic substrate (AEC, Sigma, St. Louis, Mo., USA).
Tumors were dissected 1 hour after PDT, fixed and prepared for IHC. […] In tumors taken from light controls (FIGS. 2B, 2E) or dark controls (data not shown), HNE staining was negative in blood vessels and was seen only in necrotic tumor core (spontaneous, PDT independent). FIGS. 2A, 2B and 2C are parallel adjacent sections of 2D, 2E and 2F, respectively, stained with hematoxylin-eosin.

[2] = test system: mouse ear lobe blood vessels; assay: Fluorescent intravital microscopy of PDT-induced hemodynamic changes; assay type: in vivo
Protocol: (iv) Intravital microscopy (IVM). Fluorescent IVM was performed with an upright microscope (Nikon Optiphot 2, Kawasaki, Japan) equipped with a thermoregulated stage (37° C.), a CCD camera (50 fps, Applitech, Tel-Aviv, Israel) and a VCR (JVC model HR-J437MS, Yokohama, Japan) for video recording.
Fluorescent IVM in the nude mouse ear lobe (Proske et al, 2000) was used for analysis of changes in vascular diameter, vascular permeability and blood flow. RBC from a donor mouse were labeled ex vivo with 4-(4-(didecylamino)styryl)-N-methylpyridinium iodide (4-Di-10-ASP, 7.5 μg/ml, Molecular Probes, Eugene, Oreg., USA), as previously described (Neeman et al., 2001). The labeled RBC mixed with TRITC-dextran (256 KDa, 0.5 mg/mouse as blood-pool marker, Sigma, St. Louis, Mo., USA) were i.v. administered to the tumor-bearing mouse (labeled cells comprised 1.17+/−0.08% of host RBC as verified on blood smears) and allowed to circulate for 10 min prior to video recording (mag. ×100, 20 min), starting 5 min prior to Pd-Bpheid/light and ending 5 min after the light was turned-off. Mice were euthanized by CO2 at the end of the experiment.
Fluorescence images of blood vessels were acquired every 2 minutes, before, during and up to 10 minutes after illumination. Two hemodynamic parameters were digitally calculated (Scionimage software, Scion Corp., USA) from these images: (1) Changes in blood vessel diameter (arteriolar and venular), and (2) Extravascular leakage of TRITC-dextran (measured as changes in mean pixel intensity at an 2500 μm^2 extravascular region of interest). Both parameters are presented as % of initial value.
It was reported by us (Zilberstein et al., 2001) and others (Dolmans et al., 2002), that in course of anti-vascular PDT, rapid and intense hemodynamic alterations and stasis are observed in the treated tumor site. In this experiment, fluorescence IVM was used to correlate these hemodynamic changes with the MR signal alterations before, during and after Pd-Bpheid PDT. All IVM experiments were performed on the mouse ear lobe model (Proske et al., 2000), since blood vessels in this area can be easily visualized non-invasively under the microscope. Three hemodynamic parameters were measured: (1) changes in vessel diameter (vasoconstriction), (2) extravascular macromolecular leakage, and (3) red blood cell (RBC) flux. […] Significant changes in vessel diameter or RBC flux were not observed in control animals (FIGS. 3B, D and F). […] Changes in tumor perfusion were assessed before, during and after Pd-Bpheid PDT. Pd-Bpheid administration and immediate illumination of the mouse ear lobe, initiated a rapid decrease in perfusion rate both in arterioles and vennules (open and solid circles, respectively), reaching stasis within 3-4 min (FIG. 3C), while illumination alone had no significant effect (FIG. 3D).

human blood [3] = assay: Spectroscopic sPO2 of photosensitized blood
Protocol: sPO2 of photosensitized blood: Optical spectroscopy. Fresh human blood collected in Na-citrate was steered (37° C.) in a sealed optical cuvette (under N2) without or with Pd-Bpheid (100 μg/ml). Online spectroscopic sPO2 determination was performed with a LESA reflectance spectrometer (Biospec, Moscow, Russia) as described (Neeman et al., 2001). Recording was initiated 2 minutes prior to illumination. Ten illumination cycles (1 min each, 170 mW/cm^2) were performed with spectral measurements (8×5 sec) in the intervening periods when the light was turned-off.
For spectroscopic examination, fresh human blood was subjected to spectral analysis of sPO2 during PDT in vitro. […] Upon illumination, a rapid decline in sPO2 was observed reaching a plateau at ˜25% (≧2 minutes of illumination). In the absence of Pd-Bpheid, illumination had no effect.

human blood [4] = assay: T2* weighted MRI of photosensitized isolated blood (ex vivo); conditions: for Decline in T2* weighted MR signal intensity of blood: untreated blood = 100%
Protocol: (c) Ex-vivo measurements: Freshly collected human blood in sodium citrate was spun down and re-suspended in autologous plasma to 0.6-0.7 hematocrit to minimize red blood cell (RBC) sedimentation during MRI experiments. Blood samples (500 μl) were placed in 6×50 mm glass tubes (Kimble, Div. of Owens, Ill., USA), sealed under N2 and each placed in a 3.5 ml optical plastic cuvette containing 2 ml of PBS. A proton volume coil was used (field of view 7 cm, slice thickness 2 mm, data was zero filled to matrix 512×512). Data were analyzed as the mean signal intensity of the blood sample relative to the surrounding phosphate-buffered saline (PBS).
For the MRI examination, we next determined the effect of PDT on sPO2 in isolated human blood, as manifested in T2* weighted MR signal intensity, under similar conditions. […] Thus, photosensitization of Pd-Bpheid in blood reduces sPO2 as reflected by a significant decrease in signal intensity of […] MR images in the absence of flow and volume changes.

M2R melanoma tumor = assay: Online BOLD-contrast MRI during solid tumor PDT; assay type: in vivo, mouse
Protocol: (a) Gradient echo (GE) and multiecho gradient echo (MEGE) MR images were acquired on a horizontal 4.7 T Bruker Biospec spectrometer (Rheinstetten, Germany), as described previously (Gilead et al., 1999). Imaging parameters are as follows: slice thickness 0.8 mm, TR 230 ms, TE 10 ms for GE and TE 10, 21.24 and 32.48 ms for MEGE, flip angel 40°, acquisition (AQ) time 117 sec, matrix 256×256 pixels.
(b) Animal studies: Whole body excitation coil and an RF decoupled 1.5 cm surface coil were used for improving signal/noise ratio (field of view 4 cm, slice thickness 0.8 mm). Mice were anesthetized, catheterized, and restrained by adhesive tape (supine/lateral) to locate the tumor above the center of the MRI surface coil; the laser optic fiber was fixed in place to illuminate the tumor area (FIG. 5A). After four sequential images were acquired, mice were treated i.v. with Pd-Bpheid (5 mg/kg) followed by 10 min illumination, while 11 more images were acquired. Room temperature was maintained at 28° C.
(d) Data analysis: MRI data was analyzed using Matlab (The MathWorks Inc., Natick, Mass., USA), Orisis (Version 4.0.9, Geneva, Switzerland) and Paravision 2.1.1 (Bruker, Rheinstetten, Germany). MR signal intensity was derived from each image, either from the region of interest inside the tumor or in control tissue, and normalized to the first image. Response maps were generated by division of each image by the average of the first 2 pre-PDT images. R2* maps were derived by noise weighted linear regression of log(SI), for each pixel. Only pixels with fit of R^2≧0.36 were analyzed. R2*: MRI relaxivity parameter; R^2: statistical correlation parameter.
Having shown that photosensitization of Pd-Bpheid induces changes in blood oxygen levels, we next attempted to detect such changes during PDT of a solid tumor in vivo, using MRI. BOLD-MR imaging was applied before, during and after PDT of the solid subcutaneous M2R melanoma tumor. Pd-Bpheid administration, followed by instant tumor illumination, induced a profound decrease in the MR signal intensity (25-40%) solely within the illuminated tumor area (FIGS. 5C, 6A and 6E). […] MR signal attenuation developed during the first 6-7 minutes of illumination and remained low throughout the experiment.
The MRI value ΔR2* (relaxivity difference in T2*-weighted acquisitions) is dependent only on changes in blood oxygenation and volume, and is not dependent on blood flow.

normal canine prostate = conditions: dog, in vivo; cited from earlier work
[5] = test system: melanoma, glioma, sarcoma and human prostate xenografts; conditions: cited from earlier work; for Cure rates after anti-vascular PDT: mice and rats

Q: Which results are given for CC[C@H]1c2cc3[n-]c4c(c3C)C(=O)[C@H](C(=O)OC)c4c3nc(cc4[n-]c(cc(n2)[C@@H]1C)c(C(C)=O)c4C)[C@@H](C)[C@@H]3CCC(=O)O.[Pd+2] [Pd-Bpheid, Palladium-bacteriopheophorbide]?
A: Hemorrhagic tumor necrosis (responding/treated mice) (M2R melanoma xenografts; 5 mg/kg i.v., instant illumination 10 min, 102 J/cm^2, within 24-48 h): 10/11; Tumors continued to grow (dark control, Pd-Bpheid without illumination) (M2R melanoma xenografts; 5 mg/kg, no light): 4/4; Tumor outcome in visual follow-up (M2R melanoma xenografts; one mouse, 5 mg/kg i.v., 763 nm, 102 J/cm^2, day 54 post treatment): cure; HNE adduct immunostaining (ROS-induced LPO) [1]: massive generation of HNE adducts co-localized with tumor blood vessels; Reduction in arteriolar diameter ([2]; 2-3 minutes after onset of illumination): about 50%; Blood flow (RBC flux) ([2]; 2-6 minutes after onset of illumination): sharp decline in blood flow; Time to complete blood stasis after onset of illumination ([2]; FIG. 3C): 6 to 7 min; Time to stasis (perfusion rate in arterioles and venules) ([2]; FIG. 3C, immediate illumination of ear lobe): 3 to 4 min; Extravascular TRITC-dextran (256 KDa) leakage, highest level ([2]; at end of illumination period, ± S.E.): 145±8 % of baseline; sPO2 plateau upon illumination (human blood [3]; Pd-Bpheid 100 μg/ml, 170 mW/cm^2, ≧2 minutes of illumination): ~25%; Decline in sPO2 (human blood [3]; within the first min of illumination, FIG. 4A): ~75%; Decline in T2* weighted MR signal intensity of blood (human blood [4]; 1 min illumination): 38.1%; Decline in T2* weighted MR signal intensity of blood (human blood [4]; 5 min illumination): 74.4%; MR signal intensity of dark control blood (human blood [4]; Pd-Bpheid without light): essentially identical to that of untreated blood; Decrease in MR signal intensity in illuminated tumor (M2R melanoma tumor; 5 mg/kg i.v., 10 min illumination): 25-40%; Change in MR signal intensity, dark tumor control (M2R melanoma tumor; Pd-Bpheid without illumination, FIG. 6C): No detectable change in signal intensity; Time to generation of photosensitized MR BOLD-contrast (M2R melanoma tumor; during PDT): ≤ 2 min; Time over which MR signal attenuation developed (M2R melanoma tumor; from onset of illumination): 6 to 7 min; Outcome of PDT in canine prostate (normal canine prostate): full necrosis of the tumor without functional urethral damage or damage to other adjacent tissues; Incidence of metastasis compared with conventional surgery ([5]; Schreiber et al., 2002): decreased the incidence of metastasis; Cure rates after anti-vascular PDT [5]: high cure rates

Q: Which “Cure rates after anti-vascular PDT” value [5] does the source give for “bacteriochlorophyll-serine [Bchl-Ser, reference compound]” here?
A: high cure rates
